Laboratory results from ChEMBL document CHEMBL1128585, “Synthesis and antiviral activity of 6-benzyl analogs of 1-[(2-hydroxyethoxy)methyl]-6-(phenylthio)thymine (HEPT) as potent and selective anti-HIV-1 agents” (J Med Chem, 1995).

Legend:
[1] = Effective concentration required to achieve 50% protection of MT-4 cells against the cytopathic effect of HIV-1 virus.; type: functional, cell-based; details: Human immunodeficiency virus 1, MT4
[2] = system: MT4; test: Cytotoxic concentration required to reduce the viability of mock-infected MT-4 cells by 50%; type: functional; details: Homo sapiens
[3] = system: MT4; test: The cytotoxic concentration of compound required to reduce the viability of mock-infected MT-4 cells by 50% on HIV-1 virus LAV-2ROD strain; type: functional; details: Homo sapiens
[4] = system: MT4; test: The effective concentration required to achieve 50% protection of MT-4 cells against the cytopathic effect of HIV-1 virus A012D strain; type: functional, cell-based; details: Homo sapiens
[5] = species: Mus musculus; test: Reduced GM-CSF dependent colony formation in murine bone marrow progenitor cells at 5 uM; type: functional
[6] = species: Mus musculus; test: Reduced IL-3 dependent colony formation in murine bone marrow progenitor cells at 0.05 uM; type: functional
[7] = species: Mus musculus; test: Reduced IL-3 dependent colony formation in murine bone marrow progenitor cells at 0.5 uM; type: functional
[8] = species: Mus musculus; test: Reduced GM-CSF dependent colony formation in murine bone marrow progenitor cells at 0.05 uM; type: functional
[9] = species: Mus musculus; test: Reduced GM-CSF dependent colony formation in murine bone marrow progenitor cells at 50 uM; type: functional
[10] = species: Mus musculus; test: Reduced IL-3 dependent colony formation in murine bone marrow progenitor cells at 5 uM; type: functional
[11] = species: Homo sapiens; test: The cytotoxic concentration of compound required to reduce the viability of mock-infected PBL cells by 50% on HIV-1 virus HTLV-IIIB strain; type: functional
[12] = species: Homo sapiens; test: The effective concentration required to achieve 50% protection of human peripheral blood lymphocytes against the cytopathic effect of HIV-1 virus HTLV-IIIB strain; type: functional, organism-based
[13] = system: MT4; test: The cytotoxic concentration of compound required to reduce the viability of mock-infected MT-4 cells by 50% on HIV-1 virus A012D strain; type: functional; details: Homo sapiens
[14] = species: Mus musculus; test: Reduced IL-3 dependent colony formation in murine bone marrow progenitor cells at 50 uM; type: functional
[15] = species: Mus musculus; test: Reduced GM-CSF dependent colony formation in murine bone marrow progenitor cells at 0.5 uM; type: functional
[16] = system: MT4; test: The effective concentration required to achieve 50% protection of MT-4 cells against the cytopathic effect of HIV-2 virus LAV-2ROD; type: functional, cell-based; details: Homo sapiens
[17] = species: Mus musculus; test: Reduced IL-3 dependent colony formation in murine bone marrow progenitor cells at 5uM; type: functional
[18] = species: Mus musculus; test: Reduced GM-CSF dependent colony formation in murine bone marrow progenitor cells at 5uM; type: functional

| SMILES | EC50 [1] | CC50 [2] | further results |
| --- | --- | --- | --- |
| Cc1c(CCc2ccccc2)n(COCCO)c(=O)[nH]c1=O | > 444 µM | 444 µM | – |
| CCc1c(Cc2ccccc2)n(CCOC)c(=O)[nH]c1=O | 0.25 µM | 362 µM | – |
| CCOCn1c(Cc2ccccc2)c(CC)c(=O)[nH]c1=O | 0.041 µM | 245 µM | – |
| CCOCn1c(Cc2ccccc2)c(C(C)C)c(=O)[nH]c1=O [EMIVIRINE] | 0.0042 µM | 186 µM | CC50 [3]: 102 µM; EC50 [4]: 0.003 µM; Colony_count [5]: 77; Colony_count [6]: 136; Colony_count [7]: 137; Colony_count [8]: 89; Colony_count [9]: 57; Colony_count [10]: 137; CC50 [11]: 90 µM; EC50 [12]: 0.004 µM; CC50 [13]: 102 µM; Colony_count [14]: 109; Colony_count [15]: 75; EC50 [16]: > 102 µM |
| CCCCn1c(Cc2ccccc2)c(CC)c(=O)[nH]c1=O | 0.21 µM | > 500 µM | – |
| CC(C)c1c(Cc2ccccc2)n(COCCO)c(=O)[nH]c1=O | 0.063 µM | 295 µM | – |
| CCc1c(Cc2ccccc2)n(COCCO)c(=O)[nH]c1=O | 0.35 µM | 391 µM | – |
| COCCn1c(Cc2ccccc2)c(C(C)C)c(=O)[nH]c1=O | 0.052 µM | 195 µM | – |
| CCOCn1c(Cc2cc(C)cc(C)c2)c(CC)c(=O)[nH]c1=O | 0.0016 µM | 207 µM | – |
| Cc1c(-c2ccccc2)n(COCCO)c(=O)[nH]c1=O | > 166 µM | 166 µM | – |
| Cc1cc(C)cc(Cc2c(C(C)C)c(=O)[nH]c(=O)n2COCCO)c1 | 0.0027 µM | 221 µM | – |
| CCc1c(Cc2cc(C)cc(C)c2)n(COCCO)c(=O)[nH]c1=O | 0.013 µM | 281 µM | – |
| Cc1cn([C@H]2C[C@H](N=[N+]=[N-])[C@@H](CO)O2)c(=O)[nH]c1=O [ZIDOVUDINE] | 0.003 µM | 7.8 µM | CC50 [3]: 7.8 µM; EC50 [4]: 0.3 µM; Colony_count [6]: 141; Colony_count [7]: 109; Colony_count [8]: 85; Colony_count [9]: 14; CC50 [11]: 12 µM; EC50 [12]: 0.002 µM; Colony_count [17]: 74; CC50 [13]: 7.8 µM; Colony_count [14]: 10; Colony_count [18]: 47; Colony_count [15]: 70 |
| CCOCn1c(Cc2cc(C)cc(C)c2)c(C(C)C)c(=O)[nH]c1=O | 0.0006 µM | 43 µM | – |
| Cc1c(Cc2ccccc2)n(COCCO)c(=O)[nH]c1=O | 23 µM | – | – |
| Cc1c(Sc2ccccc2)n(COCCO)c(=O)[nH]c1=O [HEPT] | 7 µM | 740 µM | – |
| CCCCn1c(Cc2ccccc2)c(C(C)C)c(=O)[nH]c1=O | 0.042 µM | 58 µM | – |
